In US20250236616A1, “IMMUNOMODULATING AZALIDES” (Zoetis Services LLC, priority 2021, published 2025):

Tests used:
Assay type in all cases: cell-based
[1] = test system: TNF-α; experiment: Whole bovine blood assay, LPS-induced TNF-α; settings: fresh whole bovine blood, LPS stimulant; top drug concentration 250 μM
In short: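 Fresh heparinized bovine whole blood was preincubated with compound 4 h at 37 °C, then stimulated with LPS (final 1 μg/mL) for 18 h at 37 °C. Plasma TNF-α was quantified by MSD U-Plex chemiluminescent immunoassay, normalized to total protein (BCA), and IC50 taken for LPS-induced TNF-α inhibition.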

[2] = test system: IL-6; experiment: Whole bovine blood assay, LPS-induced IL-6; settings: fresh whole bovine blood, LPS stimulant; top drug concentration 250 μM
[3] = test system: IL-1β; experiment: Whole bovine blood assay, LPS-induced IL-1β (inhibition / overstimulation); settings: drug concentration giving overstimulation (OS) of LPS-induced IL-1β, top concentration 250 μM
In short: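 Fresh heparinized bovine whole blood was preincubated with compound at varying concentrations for 4 h at 37 °C, then stimulated with 1 μg/mL LPS for 18 h. Plasma IL-1β was measured by MSD chemiluminescent immunoassay and normalized to total protein. Values cover inhibition and concentration-dependent overstimulation.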

Row | SMILES | IC50 [1] [µM] | IC50 [2] [µM] | minimal effective concentration [3] [µM]
1 | CCCNC[C@]1(O)[C@H](C)O[C@@H](O[C@H]2[C@H](C)[C@@H](O[C@@H]3O[C@H](C)C[C@H](N(C)S(=O)(=O)NC4CCCCC4)[C@H]3O)[C@](C)(O)C[C@@H](C)CN[C@H](C)[C@@H](O)[C@](C)(O)[C@@H](CC)OC(=O)[C@@H]2C)C[C@@]1(C)OC [Example B-56] | 86 | 26 | 16
2 | CCCNC[C@]1(O)[C@H](C)O[C@@H](O[C@H]2[C@H](C)[C@@H](O[C@@H]3O[C@H](C)C[C@H](N(C)S(=O)(=O)N(C)c4ccccc4)[C@H]3O)[C@](C)(O)C[C@@H](C)CN[C@H](C)[C@@H](O)[C@](C)(O)[C@@H](CC)OC(=O)[C@@H]2C)C[C@@]1(C)OC [Example B-57] | 5 | 8 | 16
3 | CC[C@H]1OC(=O)[C@H](C)[C@@H](O[C@H]2C[C@@](C)(OC)[C@](O)(CNCCN3CCCC3)[C@H](C)O2)[C@H](C)[C@@H](O[C@@H]2O[C@H](C)C[C@H](N(C)S(=O)(=O)Nc3ccc(C(F)(F)F)cc3)[C@H]2O)[C@](C)(O)C[C@@H](C)CN[C@H](C)[C@@H](O)[C@]1(C)O [Example B-68] | 5 | 25 | 16
4 | CC[C@H]1OC(=O)[C@H](C)[C@@H](O[C@H]2C[C@@](C)(OC)[C@](O)(CNC)[C@H](C)O2)[C@H](C)[C@@H](O[C@@H]2O[C@H](C)C[C@H](N(C)S(=O)(=O)Nc3ccc(C(F)(F)F)cc3)[C@H]2O)[C@](C)(O)C[C@@H](C)CN[C@H](C)[C@@H](O)[C@]1(C)O [Example B-76] | > 250 | > 250 | >250
5 | CC[C@H]1OC(=O)[C@H](C)[C@@H](O[C@H]2C[C@@](C)(OC)[C@](O)(CNCCN(C)C)[C@H](C)O2)[C@H](C)[C@@H](O[C@@H]2O[C@H](C)C[C@H](N(C)S(=O)(=O)Nc3ccc(C(F)(F)F)cc3)[C@H]2O)[C@](C)(O)C[C@@H](C)CN[C@H](C)[C@@H](O)[C@]1(C)O [Example B-82] | 71 | > 250 | >250
6 | CC[C@H]1OC(=O)[C@H](C)[C@@H](O[C@H]2C[C@@](C)(OC)[C@](O)(CNCCCNC(C)=O)[C@H](C)O2)[C@H](C)[C@@H](O[C@@H]2O[C@H](C)C[C@H](N(C)S(=O)(=O)Nc3ccc(C(F)(F)F)cc3)[C@H]2O)[C@](C)(O)C[C@@H](C)CN[C@H](C)[C@@H](O)[C@]1(C)O [Example B-88] | 22 | 40 | 14
7 | CC[C@H]1OC(=O)[C@H](C)[C@@H](O[C@H]2C[C@@](C)(OC)[C@](O)(CNCCCF)[C@H](C)O2)[C@H](C)[C@@H](O[C@@H]2O[C@H](C)C[C@H](N(C)S(=O)(=O)Nc3ccc(C(F)(F)F)cc3)[C@H]2O)[C@](C)(O)C[C@@H](C)CN[C@H](C)[C@@H](O)[C@]1(C)O [Example B-91] | 34 | 101 | 2
8 | CCCNC[C@]1(O)[C@H](C)O[C@@H](O[C@H]2[C@H](C)[C@@H](O[C@@H]3O[C@H](C)C[C@H](N(C)S(=O)(=O)c4ccc(Br)cc4)[C@H]3Oc3ccc(OC)cc3)[C@](C)(O)C[C@@H](C)CN[C@H](C)[C@@H](O)[C@](C)(O)[C@@H](CC)OC(=O)[C@@H]2C)C[C@@]1(C)OC [Example B-104] | 15 | 7 | 3
9 | CCCNC[C@]1(O)[C@H](C)O[C@@H](O[C@H]2[C@H](C)[C@@H](O[C@@H]3O[C@H](C)C[C@H](N(C)S(=O)(=O)c4ccc(Cl)cc4)[C@H]3Oc3ccc(F)cc3)[C@](C)(O)C[C@@H](C)CN[C@H](C)[C@@H](O)[C@](C)(O)[C@@H](CC)OC(=O)[C@@H]2C)C[C@@]1(C)OC [Example B-106] | 7 | 9 | 3
10 | CCCNC[C@]1(O)[C@H](C)O[C@@H](O[C@H]2[C@H](C)[C@@H](O[C@@H]3O[C@H](C)C[C@H](N(C)S(=O)(=O)c4ccc(F)cc4)[C@H]3Oc3ccc(F)cc3)[C@](C)(O)C[C@@H](C)CN[C@H](C)[C@@H](O)[C@](C)(O)[C@@H](CC)OC(=O)[C@@H]2C)C[C@@]1(C)OC [Example B-108] | 5 | 10 | 6
11 | CCCNC[C@]1(O)[C@H](C)O[C@@H](O[C@H]2[C@H](C)[C@@H](O[C@@H]3O[C@H](C)C[C@H](N(C)S(=O)(=O)c4ccccc4)[C@H]3Oc3ccc(F)cc3)[C@](C)(O)C[C@@H](C)CN[C@H](C)[C@@H](O)[C@](C)(O)[C@@H](CC)OC(=O)[C@@H]2C)C[C@@]1(C)OC [Example B-109] | 9 | 10 | 3

Now from value to molecule, other results behind:

Row | IC50 [1] [µM] | IC50 [2] [µM] | SMILES | minimal effective concentration [3] [µM]
12 | 154 | 75 | CCCNC[C@]1(O)[C@H](C)O[C@@H](O[C@H]2[C@H](C)[C@@H](O[C@@H]3O[C@H](C)C[C@H](N(C)S(=O)(=O)c4nccn4C)[C@H]3Oc3c(C)cccc3F)[C@](C)(O)C[C@@H](C)CN[C@H](C)[C@@H](O)[C@](C)(O)[C@@H](CC)OC(=O)[C@@H]2C)C[C@@]1(C)OC [Example B-110] | 18
13 | > 250 | 141 | CCCNC[C@]1(O)[C@H](C)O[C@@H](O[C@H]2[C@H](C)[C@@H](O[C@@H]3O[C@H](C)C[C@H](N(C)S(=O)(=O)c4ncn(C)c4Cl)[C@H]3Oc3ccc(OC)cc3)[C@](C)(O)C[C@@H](C)CN[C@H](C)[C@@H](O)[C@](C)(O)[C@@H](CC)OC(=O)[C@@H]2C)C[C@@]1(C)OC [Example B-111] | 17
14 | 39 | 45 | CCCNC[C@]1(O)[C@H](C)O[C@@H](O[C@H]2[C@H](C)[C@@H](O[C@@H]3O[C@H](C)C[C@H](N(C)S(=O)(=O)N(C)CC(F)(F)F)[C@H]3O)[C@](C)(O)C[C@@H](C)CN[C@H](C)[C@@H](O)[C@](C)(O)[C@@H](CC)OC(=O)[C@@H]2C)C[C@@]1(C)OC [Example B-112] | 40
15 | 34 | 88 | CC[C@H]1OC(=O)[C@H](C)[C@@H](O[C@H]2C[C@@](C)(OC)[C@](O)(CNc3ccc(OC)cc3)[C@H](C)O2)[C@H](C)[C@@H](O[C@@H]2O[C@H](C)C[C@H](N(C)S(N)(=O)=O)[C@H]2O)[C@](C)(O)C[C@@H](C)CN[C@H](C)[C@@H](O)[C@]1(C)O [Example B-125] | 16
16 | 28 | 17 | CCCNC[C@]1(O)[C@H](C)O[C@@H](O[C@H]2[C@H](C)[C@@H](O[C@@H]3O[C@H](C)C[C@H](N(C)S(=O)(=O)c4nccn4C)[C@H]3Oc3ccccn3)[C@](C)(O)C[C@@H](C)CN[C@H](C)[C@@H](O)[C@](C)(O)[C@@H](CC)OC(=O)[C@@H]2C)C[C@@]1(C)OC [Example B-131] | 6
17 | 17 | 83 | CCCNC[C@]1(O)[C@H](C)O[C@@H](O[C@H]2[C@H](C)[C@@H](O[C@@H]3O[C@H](C)C[C@H](N(C)S(=O)(=O)c4nccn4C)[C@H]3Oc3cccc(CO)c3)[C@](C)(O)C[C@@H](C)CN[C@H](C)[C@@H](O)[C@](C)(O)[C@@H](CC)OC(=O)[C@@H]2C)C[C@@]1(C)OC [Example B-134] | 40
